Experimental data published in patent publication US12102709B2, “Anti-obesity agent, anti-dementia agent, deodorant, anti-aging agent, anti-glycation agent, anti-type I allergy agent, hypotensive agent, flavor improving agent, muscle enhancing agent, and bone metabolism improving agent” (Mitsui Sugar Co., Ltd., priority 2018, dated 2024).

Experiments:
[1] = AGEs crosslinking cutting test; assay type: biochemical; settings: PTB 5 mmol/L
Description: Next, according to the AGEs crosslinking cutting test, the AGEs decomposition activity of the bagasse decomposition extract (the extract A) was evaluated. […] PPD) having an α-diketone structure was used as a model substrate, which is a known method (for example, Glycative Stress Research 2015, Vol. 2 (No. 2), pp. 58-66). The extract A as a bagasse decomposition extract was dissolved in distill water to a concentration of 20 mg/mL to prepare a test sample. The above prepared sample was added to a reaction solution containing a 0.16 mol/L phosphate buffer solution (pH 7.4), and a […] PPD composition to a concentration of 1/2 (10 mg/mL) and incubated at 37° C. for 8 hours. […] The amount of benzoic acid in the supernatant was analyzed through reversed phase HPLC. The amount of benzoic acid in the reaction solution was determined by subtracting the amount of benzoic acid in the sample that was separately measured. Since 1 mol of PPD produced 1 mol of benzoic acid, the crosslinking cutting rate was calculated according to the following formula. […] Then, the reaction solution was centrifuged at 20° C. and 3,000×g, for 10 minutes, and the amount of benzoic acid in the supernatant was analyzed through reversed phase HPLC. The amount of benzoic acid in the reaction solution was determined by subtracting the amount of benzoic acid in the sample that was separately measured. […]

3T3-L1 cells = assay: 3T3-L1 cell lipid accumulation inhibition test; assay type: cell-based, mouse; settings: berberine chloride final concentration 1 μg/mL; untreated control = 100%
Description: The extract A was dissolved in water to prepare 50 mg/mL of a test solution stock solution. The test solution stock solution was diluted with a DMEM culture medium to prepare a test solution with a specimen concentration of 2,000 μg/mL.
3T3-L1 cells (National Institute of Biomedical Innovation, Health and Nutrition) as mouse adipose progenitor cells were seeded on a 24-well plate, and cultured in a DMEM culture medium containing a newborn calf serum (10 vol %, with respect to a total amount of the culture medium) and a penicillin-streptomycin solution (1 vol %, with respect to a total amount of the culture medium) for 4 days. […]
After the lipid droplets were observed, a pigment extract solution contained in the Adipogenesis Assay Kit was added to samples of Example a1, Comparative Example a1-1, and Positive Control a1-1, and Oil Red O incorporated into the lipid droplets was extracted. The absorbance of the extracted Oil Red O at 520 nm was measured using a microplate reader (SpectraMax M2e, commercially available from Molecular Devices, LLC.).
The lipid accumulation rate was calculated from the absorbance of respective samples according to the following formula. […]

C2C12 cells [2] = assay: Mitochondrial activation test (amount of mitochondria per cell); assay type: cell-based, mouse; settings: Table 24; positive control; 48 hours; Comparative Example i1-4 = 100%
Description: (Cells) • Mouse Myoblasts C2C12 Cells (ATCC, CRL-1772) (Culture Mediums) • Growth culture medium composition: DMEM culture medium, 10% FBS, antibiotics added • Differentiation culture medium composition: DMEM culture medium, 0.5% FBS, antibiotics added C2C12 cells were cultivated using a growth culture medium in a T-75 flask (75 cm^2 U-shaped canted neck cell culture flask, commercially available from Corning Co., Ltd.). The T-75 flask was put into a CO2 incubator (5% CO2, 37° C., wet) and the C2C12 cells were cultured. The culture medium was replaced every other day, and when an 80% confluence was reached, the cells were collected and used for the test. Here, in the following test, regarding a well plate for culturing C2C12 cells, a plate coated with gelatin according to the following coating method was used. […] Then, after the culture supernatant was removed, a differentiation culture medium containing 5 μg/mL Hoechst (reagent for nuclear staining) and 500 nM MitoTracker (mitochondria staining reagent) was added to the well plate, and the fluorescence intensity was measured by the same method as in Test Example i1-1. The amount of mitochondria per cell was calculated by dividing the fluorescence intensity of the differentiation culture medium containing MitoTracker by the fluorescence intensity of the differentiation culture medium containing Hoechst. […]

C2C12 cells [3] = assay: Mitochondrial activation test (activity per cell); assay type: cell-based, mouse; settings: resveratrol 50 μM, 1% (v/v) ethanol; 48 hours; Comparative Example i1-2 = 100%
Description: (Cells) • Mouse Myoblasts C2C12 Cells (ATCC, CRL-1772) (Culture Mediums) • Growth culture medium composition: DMEM culture medium, 10% FBS, antibiotics added • Differentiation culture medium composition: DMEM culture medium, 0.5% FBS, antibiotics added C2C12 cells were cultivated using a growth culture medium in a T-75 flask (75 cm^2 U-shaped canted neck cell culture flask, commercially available from Corning Co., Ltd.). The T-75 flask was put into a CO2 incubator (5% CO2, 37° C., wet) and the C2C12 cells were cultured. The culture medium was replaced every other day, and when an 80% confluence was reached, the cells were collected and used for the test. […] Pre-cultured cells were seeded in a 96-well plate for fluorescence observation (optical bottom plate, commercially available from Nunc) at 4×10^4 cells/0.1 mL/well using a growth culture medium. […] Then, the fluorescence intensity was measured with a fluorescent plate reader. The mitochondrial activity per cell was calculated by dividing the fluorescence intensity of the differentiation culture medium containing rhodamine by the fluorescence intensity of the differentiation culture medium containing Hoechst. […] In addition, the relative values (%) in the test samples of Examples i1-4 to i1-6 and Positive Control it when the mitochondrial activity in the test sample of Comparative Example i1-2 was set as 100% were determined.

[4] = tested on: human osteoclast precursor cells; assay: Osteoclast differentiation inhibition test 2 (proportion of mononuclear cells); assay type: cell-based; settings: 7 days
Description: It is known that, when osteoclasts mature, cells fuse each other and become multinucleated. Therefore, the proportion of mononuclear cells of osteoclasts was measured, and an osteoclast differentiation inhibition effect was confirmed. Under the same culture conditions as in Example j2-1, human osteoclast precursor cells were cultured using a culture medium containing the extract A with a concentration shown in Table 27 (Example j3-1), a culture medium containing no extract (Comparative Example j3-1), or a culture medium containing melatonin with a concentration shown in Table 27 (Positive Controls j3-1 to j3-2) as positive controls. The proportion of mononuclear cells (%) was calculated by dividing the number of mononuclear cells in the field of view of the microscope by the total number of cells in the field of view.

[5] = tested on: human osteoclast precursor cells; assay: Osteoclast differentiation inhibition test 1 (TRAP staining); assay type: cell-based; settings: 1,000 μM melatonin; 7 days; FIG. 11
Description: (Cells) • Human osteoclast precursor cells (commercially available from Cosmo Bio Co., Ltd. PT-267 Lot. RBW-F-OSH-HBV) Using the above culture medium, 250 μg/mL of a solution containing the extract A was prepared, and this was used as a test solution (Example j2-1). Human osteoclast precursor cells were seeded in a 96-well culture plate at about 0.3×10^5 cells/50 μl/well. A test solution was added thereto at 50 μL/well and culturing was performed under conditions of 37° C. and 5% CO2 for 7 days. The cultured cells were stained with TRAP using a TRAP staining kit, and observed under a microscope. In the same manner, the same test was performed on a culture medium to which no test solution was added (Comparative Example j2-1) and a culture medium containing 1,000 μM melatonin (Positive Control j2) as a positive control.

Structure (SMILES): O=C(C[n+]1ccsc1)c1ccccc1.[Br-] [PTB, N-phenacylthiazoliumbromide]
- Crosslinking cutting rate ([1]; Test Example e2): 20.1%
- Crosslinking cutting rate ([1]; Test Example e4): 22.4%

Structure (SMILES): COc1ccc2cc3[n+](cc2c1OC)CCc1cc2c(cc1-3)OCO2 [Positive Control a1-1, berberine chloride]
- Lipid accumulation rate (3T3-L1 cells): 19±1.0%

Structure (SMILES): Oc1ccc(C=Cc2cc(O)cc(O)c2)cc1 [Positive Control i1-1, resveratrol]
- Amount of mitochondria per cell (relative value, %) (C2C12 cells [2]): 178.4 ± 9.6%
- Mitochondrial activity per cell (relative value, %) (C2C12 cells [3]): 178.4 ± 9.6%

Structure (SMILES): COc1ccc2[nH]cc(CCNC(C)=O)c2c1 [Positive Control j3-1, melatonin]
- Proportion of mononuclear cells (%) (average N = 3) ([4]; melatonin 500 μM): 88%
- Proportion of mononuclear cells (%) (average N = 3) ([4]; melatonin 1,000 μM): 100%
- Microscopic observation of TRAP-stained osteoclasts [5]: a decrease in the number of osteoclasts was also observed
